Tested on: mouse E18 primary hippocampal neurons
Experiment: Toxicity of the peptides: phase contrast morphology and LDH assay, 5 days treatment
Format: cell-based
Source text: To screen these peptides, primary neuronal cell cultures were used from embryonic day 18 (E18) C57BL/6 mouse hippocampus. At the fourth day in vitro (DIV), the culture medium was exchanged with the medium containing the peptides. The primary neuronal cultures were established as taught in the art (see, e.g., Cardenas-Aguayo Mdel, Santa-Olalla et al. 2003, hereby incorporate by reference). Briefly, C57BL/6 time pregnant E18 female mice from Charles River Labs were anesthetized and killed by cervical dislocation following our Institutional Animal Care and Use Committee (IACUC) regulations and approved protocol. Embryos were removed and placed in cold Hibernate A (available from Brain bits, Springfield, Ill., USA), and all of the following steps were performed in ice-cold Hibernate A, under a stereoscopic (dissection) microscope placed in a laminar flow hood. Fetal brains were removed carefully and fore brain were separated. Then, the hippocampus, including the cortex surrounding the area of the hippocampus, was dissected and cut into small pieces using microsurgical scissors. The cut tissue was transferred with number 5 forceps to 15 ml tubes containing 0.1% trypsin in Versene (Invitrogen Life Technologies, Grand Island, N.Y., USA) and incubated for 15 min at 37° C. followed by inactivation with 10% fetal bovine serum (FBS) in Neurobasal complete medium (Neurobasal Medium supplemented with 2×B-27, 0.30% glutamine, and penicillin/streptomycin 0.1 mg/ml and 0.1 U/ml respectively). All medium components were purchased from Invitrogen, Grand Island, N.Y., USA. […]
To study any toxic effect of the peptides, mouse E18 primary hippocampal neurons were treated with the five BDNF peptides individually for up to 5 days at different doses [5 nM, 25 nM, 50 nM (data not shown), 100 nM (0.1 μM), 1000 nM (1 μM), and 10,000 nM (10 μM)]. […] Accordingly, there was no significant change in the viability of cells treated with any of the peptides as evaluated by the lactate dehydrogenase (LDH) assay (see FIG. 2B). […]

## Ac-S-KKR-CONH2 [Peptide B-3]
0.1 μM
  cell death (LDH assay) vs vehicle treated cells: significant reduction in cell death
1 μM
  cell death (LDH assay) vs vehicle treated cells: significant reduction in cell death
